Source: patent US9845457B2, “Maintenance of genomic stability in cultured stem cells” (Cedars-Sinai Medical Center, priority 2010, dated 2017)

How the values were obtained:
[1] = system: ATR, Rad50, Rad51, Chk1, Chk2; experiment: Western blotting of other DNA repair factors after 24 hours short-term exposure; assay type: cell-based, human; conditions: 20% O2, high concentrations
Procedure: To examine the protein levels of ATM and other DNA repair-related factors, total protein was purified from twice-passaged CDCs cultured under the abovementioned four different conditions, using well-established laboratory techniques. Briefly, harvested cells were homogenized in a lysis buffer containing a protease inhibitor mixture (Roche Applied Science) on ice. After centrifugation at 15,000 rpm for 10 min, the supernatant was collected for experiments. The equivalent of 30 μg of total protein was loaded onto 5% or 10% SDS-PAGE gels, and then transferred to PVDF membranes. […] Quantitation for blots was done by Quantity One software, and expressions were normalized by β-actin.
Twice-passaged cells were seeded in 6-well plates coated with 20 μg/ml fibronectin. […] The expression of ATM and other DNA repair-related factors was assessed by Western blotting as described above.

[2] = system: human cardiosphere-derived cells; experiment: Intracellular ROS levels (DCF fluorescence) after 24 hours short-term exposure; assay type: cell-based; conditions: 20% O2, antioxidant A 100-1,000,000-fold dilution, B 0.1-1000 μM, catalase 0.1-1000 units/ml, H2O2 0.1-1000 μM
Procedure: To assay intracellular ROS levels (ROS levels), twice-passaged CDCs were seeded in 6- or 96-well plates coated with 20 μg/ml fibronectin, and continuously cultured under the abovementioned four different conditions. At about 90% confluence, cells were incubated with 10 μM 2′,7′-dichlorodihydrofluorescein diacetate (DCFH-DA) (Invitrogen) for 60 min to allow DCFH-DA to diffuse into cells. The DCF fluorescence intensity in cells cultured in 96-well plates is directly determined using SpectraMax® M5 (Molecular Devices Corp.) with an excitation wavelength of 495 nm and an emission wavelength of 520 nm. Cells cultured in 6-well plates were trypsin-treated and fixed. The DCF fluorescence intensity in cells was analyzed using a FACS Calibur flow cytometer with CellQuest software (BD Biosciences).
Twice-passaged cells were seeded in 6- or 96-well plates coated with 20 μg/ml fibronectin. […] After 24 hours of culture, the DCF fluorescence intensity in cells was measured using the same methods as disclosed above.
CDCs were initially maintained in traditional 5% CO2/20% O2 culture condition and then seeded into 96-well plates and cultured for 24 hours under experimental conditions. […] Dev. for six separate experiments using different twice-passaged CDCs. (a.u.: arbitrary units. * p<0.01, †p<0.05 vs. the baseline levels, represented by “0” on the x-axis). […]

human CDCs = assay type: cell-based
Procedure: CDCs were expanded in conventional conditions under 20% O2 as described above. Twice-passaged CDCs and ES cells were used in these Examples. Cells were seeded in 96-well plates coated with 20 μg/ml fibronectin. […] After 24 hours of culture, cells were fixed, permeabilized and stained with rabbit polyclonal antibody against γ-H2AX (phosphor 5139, Abeam Inc.). After being washed, the cells were stained with a PE-conjugated secondary antibody and 4,6-diamidino-2-phenylindole (DAPI). Quantification of cells positive for γ-H2AX foci was performed by fluorescence microscopy (×40 magnification). Briefly, at least 5 images were captured from each culture condition from randomly-selected fields using Q-imaging (RETIGA EXi FAST, Canada) with the same exposure time. Cells with γ-H2AX foci in the nuclei were counted by a single observer blinded to treatment regimen, and the percentage of cells with γ-H2AX foci in each culture condition was used for statistical analysis.

| Compound | expression levels of ATR, Rad50, Rad51, Chk-1, and Chk-2 [1] | ROS levels, dose response [2] | percentage of CDCs with γ-H2AX foci (DNA damage), dose response (human CDCs) |
| --- | --- | --- | --- |
| OO [Antioxidant H2O2, hydrogen peroxide] | increased | increased | increased DNA damage dose-dependently |
| catalase | slightly or obviously decreased | decreased | A similar result |
